Test results from PubChem BioAssay AID602191 (Broad Institute, 2012).
The source made the active and inactive calls.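 Rule for the calls: active = fitted curve reaches 40% activation at a concentration no higher than the top valid tested dose; inconclusive = flat fit between 30% and 70% activation, or poor fit; inactive = uptake decrease, flat fit within 30% of zero, the rest.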

Each compound was assayed against Scavenger receptor class B member 1 (Mus musculus) (UniProt Q61009) (assay: enhancers of DiI-HDL lipid transfer via SR-BI – cell-based, ldlA[mSR-BI] CHO, DiI fluorescence, cherry-pick, dose response (AID 602191;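 note: cell fluorescence from internalized DiI-labeled HDL after washing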;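 for AC40: potency of activators raising HDL uptake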;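 for activation (HDL uptake increase): 0% = median of DMSO wells and 100% = twice the DMSO signal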)). Details: ldlA[mSR-BI] CHO cells, 3 h, at 35 µM (top of the series).
Scavenger receptor class B member 1 (Mus musculus), sequence (Q61009 whole entry, looked up): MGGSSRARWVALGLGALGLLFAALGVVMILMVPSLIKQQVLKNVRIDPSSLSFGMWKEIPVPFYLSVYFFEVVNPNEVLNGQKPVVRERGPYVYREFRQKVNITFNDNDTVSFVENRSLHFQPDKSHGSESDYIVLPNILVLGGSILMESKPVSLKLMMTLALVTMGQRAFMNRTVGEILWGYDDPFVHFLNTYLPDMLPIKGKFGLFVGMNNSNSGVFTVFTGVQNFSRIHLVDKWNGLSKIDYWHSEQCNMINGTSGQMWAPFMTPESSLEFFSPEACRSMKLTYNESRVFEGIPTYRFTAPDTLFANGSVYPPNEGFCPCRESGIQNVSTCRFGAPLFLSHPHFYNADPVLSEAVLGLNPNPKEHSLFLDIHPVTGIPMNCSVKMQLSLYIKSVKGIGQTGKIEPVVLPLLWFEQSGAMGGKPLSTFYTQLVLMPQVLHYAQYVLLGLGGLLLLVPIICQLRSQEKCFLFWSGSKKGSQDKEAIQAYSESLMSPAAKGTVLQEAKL

activation (HDL uptake increase)	SMILES
2.09% (inactive)	O=C(c1ccc(CS(=O)Cc2ccccc2Cl)o1)N1CCN(C2CCCCC2)CC1 (stereo not drawn)
2.07% (inactive)	CCCCn1c(CN2CCN(C(=O)c3ccco3)CC2)nc2c1c(=O)n(C)c(=O)n2C
-5.87% (inactive)	CN1CCN(C(=O)C2CCCN(S(=O)(=O)c3ccc(Br)cc3)C2)CC1 (stereo not drawn)
-5.09% (inactive)	Cn1c(=O)oc2cc(S(=O)(=O)NCCN3CCN(c4ccccc4)CC3)ccc21
7.27% (inactive)	COC(=O)C1(C)NC(c2ccccc2OC)C2C(=O)N(c3ccccc3)C(=O)C21 (stereo not drawn)
-10.4% (inactive)	O=C(CSc1nnnn1-c1ccccc1)N1CCNC1=O
-13.4% (inactive)	Cc1ccc(C2(CC(=O)N3CCCC3)CCOC(C(C)C)C2)cc1 (stereo not drawn)
-0.198% (inactive)	C[C@@H]1CN([C@H](C)CO)C(=O)c2cc(NC(=O)Nc3ccc(C(F)(F)F)cc3)ccc2O[C@H]1CN(C)Cc1ccc(Cl)c(Cl)c1
-8.34% (inactive)	CC1CCN(S(=O)(=O)c2ccc3c(c2)c(=O)c(C(=O)N2CCCCC2)cn3C)CC1
11.7% (inactive)	COc1ccc(-n2nc(C(=O)NCC(=O)O)c3ccccc3c2=O)cc1
-4.58% (inactive)	CC1CC(C)CN(C(=O)CN2CCN(Cc3ccc(Cl)cc3)C2=O)C1 (stereo not drawn)
-0.695% (inactive)	Cc1c(C)c2ccc(OCC(=O)NC(Cc3c[nH]c4ccc(O)cc34)C(=O)O)c(C)c2oc1=O (stereo not drawn)
4.83% (inactive)	COc1ccc(N(C(=O)CNC(=O)c2ccco2)C(C(=O)NC2CCCCC2)c2ccncc2)cc1 (stereo not drawn)
-25.2% (inactive)	CC(C)CC(=O)c1c(O)c(C=O)c(O)c2c1O[C@@]1(C)[C@@H](C2)C[C@H]2C[C@@H]1C2(C)C
-8.52% (inactive)	CN1CCN(CCC(=O)Nc2ccccc2Cl)CC1
5.12% (inactive)	C[C@@H]1CN([C@H](C)CO)C(=O)c2cc(NC(=O)Nc3ccc(C(F)(F)F)cc3)ccc2O[C@H]1CN(C)S(=O)(=O)c1ccc(Cl)cc1
0.791% (inactive)	CN(C)CCCNC(=O)Cc1ccc(Br)cc1
-4.43% (inactive)	O=C1NC2NC(=O)N(C(Cc3ccccc3)C(=O)O)C2N1 (stereo not drawn)
-14.1% (inactive)	O=C(CCN1C(=O)/C(=C\C=C\c2ccccc2)SC1=S)Nc1ccc(C(=O)O)cc1
5.16% (inactive)	NCCc1nnc(SCc2ccccc2)o1
-6.45% (inactive)	CCC(=O)Nc1ccc(C(=O)NNC(=O)c2cccs2)cc1
-12.6% (inactive)	CC(=O)Oc1ccc2oc(=O)c3c(c2c1)CCCN3C(=O)CN1CCN(c2ncccn2)CC1
-4.79% (inactive)	CCN1C(=O)C2C(c3cccc(F)c3)NC(CC)(C(=O)OC)C2C1=O (stereo not drawn)
-1.39% (inactive)	Cc1noc(/C=C/N(C)C)c1S(=O)(=O)N1CCCC(C(=O)NCc2ccco2)C1 (stereo not drawn)
-9.38% (inactive)	Cc1ccc(O)c(NC(=S)NC(=O)c2ccc(-c3ccc(Cl)cc3)o2)c1
4.41% (inactive)	O=C(COC(=O)C1CC1)Nc1ccc(OC(F)F)cc1

activation (HDL uptake increase)	SMILES
-3.71% (inactive)	O=C(CCCc1nc2ccccc2s1)NCc1ccccc1
-20.1% (inactive)	Cc1ccc(-n2ncc3c(=O)n(CC(=O)N4CCN(c5ccccc5F)CC4)cnc32)cc1C
5.9% (inactive)	CC(Oc1ccccc1)C(=O)Nc1cccc(F)c1 (stereo not drawn)
-4.96% (inactive)	COCCNC(=O)c1onc(CSc2ccc(F)c(F)c2)c1C(=O)O
-0.114% (inactive)	CCc1cc(C(=O)Nc2cc(S(=O)(=O)N3CCOCC3)ccc2N2CCN(CC)CC2)sc1C
-7.97% (inactive)	Cc1cc(NC(=O)CN2C(=O)NC(C)(c3ccc(OC(F)F)cc3)C2=O)no1 (stereo not drawn)
1.17% (inactive)	CCCC(=O)Nc1cc(C(=O)O)ccc1S(=O)(=O)c1ccc(C)cc1
-0.486% (inactive)	Cc1cccc(NC(=O)CN2CCN(C(=O)C3CCCO3)CC2)c1C (stereo not drawn)
-7.32% (inactive)	COc1ccc(C(C(=O)NC2CCCCC2)N(C(=O)CCl)c2ccc(C)cc2)cc1 (stereo not drawn)
-6.59% (inactive)	Cc1ccc(S(=O)(=O)c2cc(OC(=O)c3ccco3)ccc2OC(=O)c2ccco2)cc1
6.28% (inactive)	C[C@]12C[C@H](O)[C@H]3[C@@H](CCC4=CC(=O)CC[C@@]43C)[C@@H]1CC[C@@H]2C(=O)CO
1.48% (inactive)	CC(C)c1ccc(OCC(=O)NCCO)cc1
1.64% (inactive)	Cc1ccc(C(=O)NCCc2cccs2)cc1
11.6% (inactive)	Cc1cccc(CCNS(=O)(=O)c2ccc3c(c2)NC(=O)CO3)c1
-1.31% (inactive)	COc1ccc(OC)c(S(=O)(=O)N2CCN(C(=O)CCc3ccccc3)CC2)c1
-7.61% (inactive)	CCOc1ccc(N(C(=O)c2ccc3c(c2)OCO3)C2C=CS(=O)(=O)C2)cc1 (stereo not drawn)
44.6% (inactive)	C[C@H](CO)N1C[C@H](C)[C@H](CN(C)Cc2ccc(-c3ccccc3)cc2)Oc2ccc(NS(=O)(=O)c3ccccc3)cc2CC1=O
-6.57% (inactive)	COc1ccc(N2CC(NS(=O)(=O)c3cccnc3)CC2=O)cc1 (stereo not drawn)
-31.7% (inactive)	CNC[C@H](CC1CCCCC1)NC[C@H](Cc1ccccc1)NCCC12CC3CC(CC(C3)C1)C2
7.18% (inactive)	COCCCNC(=O)C1CCC(CNS(=O)(=O)c2ccc3c(c2)N(C(C)=O)CCO3)CC1 (stereo not drawn)
-1.1% (inactive)	COc1cccc(/C=N/n2c(SC)nnc2-c2ccccc2)c1O
9.53% (inactive)	Cc1ccc(C(=O)NCCCN2CCOCC2)cc1S(=O)(=O)N1CCCCC1
-4.82% (inactive)	O=C(COc1ccc([N+](=O)[O-])cc1)NCc1cccnc1
-10.8% (inactive)	O=C(CCNC(=O)c1ccccc1Cl)NN1C(=O)NC2(CCCCC2)C1=O
11.3% (inactive)	Cc1ccc(S(=O)(=O)NC(=O)COc2ccccc2C)c(C)c1
-5.76% (inactive)	CCCCCC1CC(CC(=O)O)C(=O)O1 (stereo not drawn)

activation (HDL uptake increase)	SMILES
-2.51% (inactive)	CCN(CC)CCCNC(CC(=O)Nc1cccc([N+](=O)[O-])c1)C(=O)O (stereo not drawn)
-6.34% (inactive)	COc1ccc(C(=O)C2CCCN(C(=O)/C=C/c3ccccn3)C2)c(C)c1 (stereo not drawn)
-1.19% (inactive)	Cc1cc(S(=O)(=O)NCCc2ccccc2)c(C)s1
25.1% (inactive)	O=C(CC1C[C@H](C(=O)N2CCOCC2)[C@@]2(CCC3CCCC3)c3[nH]c4ccccc4c3CCN2C1=O)NCc1cccc(C(F)(F)F)c1 (stereo partly drawn)
-3.94% (inactive)	Cc1csc(SCC(=O)Nc2cc(C(N)=O)cc(C(N)=O)c2)n1
0.656% (inactive)	O=C(Cn1c(C(=O)NCCCN2CCOCC2)cc2sccc21)c1ccccc1
-14.4% (inactive)	O=C(NCC(=O)N1CCN(c2ccccc2)CC1)c1ccc(Br)o1
-7.7% (inactive)	C[C@H](CO)N1C[C@H](C)[C@H](CN(C)C)Oc2ccc(NS(=O)(=O)c3ccc(F)cc3)cc2CC1=O
7.72% (inactive)	C=CCn1c(C(CCC(C)C)CC(C)(C)O)n[nH]c1=S (stereo not drawn)
-10.8% (inactive)	Cc1ccc(NC(=O)COC(=O)Cn2ccc(=O)[nH]c2=O)cc1C
-0.494% (inactive)	CCCCCC(=O)Nc1cc(S(=O)(=O)N2CCOCC2)ccc1N1CCCCC1
-24.2% (inactive)	Cc1ccc(OCC(=O)N(C)CC(=O)NCc2ccco2)c(Br)c1
-11.8% (inactive)	O=S(=O)(Nc1ccccc1OC(F)F)c1ccc(S(=O)(=O)N2CCCC2)cc1
-4.96% (inactive)	CCCn1c(N)c(N(CCOC)C(=O)c2ccc(S(=O)(=O)N3CCOCC3)cc2)c(=O)[nH]c1=O
-7.38% (inactive)	O=C(COC(=O)C1CCN(/C=C/C(=O)C(F)(F)F)CC1)Nc1cccc(F)c1
-3.81% (inactive)	COc1ccc(C(=O)N2CCNC(=O)C2)cc1S(=O)(=O)Nc1ccc(Br)cc1
-15.9% (inactive)	O=C(OCc1ccccc1)c1cccc(-c2nnc(-c3ccccc3)o2)c1
-14.9% (inactive)	O=C(COc1ccccc1Cc1ccccc1)Nc1cccnc1
-11.7% (inactive)	O=C(NC(=S)N(Cc1ccccc1)Cc1ccccc1)c1ccccc1F
-9.16% (inactive)	CNC(=O)c1ccc(N(Cc2ccccc2C)S(C)(=O)=O)cc1
0.551% (inactive)	Cc1ccc(SCC(=O)NNC(=O)CCS(=O)(=O)c2ccc(C)cc2)cc1
11.1% (inactive)	CC(C(=O)NCCS(=O)(=O)c1ccc(Br)cc1)S(=O)(=O)c1ccc(Cl)cc1 (stereo not drawn)
-1.54% (inactive)	C[C@H](NC(=O)c1nc[nH]c1C(=O)NCc1ccccc1)c1ccccc1
-12.6% (inactive)	COCCn1c(=O)[nH]c2cc(C(=O)N3CCN(c4ccccc4OC)CC3)ccc2c1=O
4.09% (inactive)	COC(=O)c1ccc([C@@H](O)[C@H](C)C(=O)CC(=O)OC(C)(C)C)cc1
-0.117% (inactive)	O=C(OCCc1cc2ccccc2c(=O)o1)c1ccco1

Same assay, conditions: ldlA[mSR-BI] CHO cells, DiI-HDL uptake fluorescence, 3 h

AC40	SMILES
> 35 µM (inactive)	COCCNC(=O)c1onc(CSc2cccc(C)c2)c1C(=O)O
> 35 µM (inactive)	CCn1c(C(=O)O)c(CC(=O)NC2CCCCCC2)c2ccccc21
> 35 µM (inactive)	COc1ccc2sc(-c3ccccc3OC)c(-c3ccc(OCCN4CCCC4)cc3)c2c1
> 35 µM (inactive)	O=C(Cc1ccc(NC(=O)C2CCN(C(=O)C3CC3)CC2)cc1)Nc1ccc(C(=O)N2CCOCC2)cc1
> 35 µM (inactive)	NCCCC[C@H]1CNC(=O)C(=O)N1CCc1cccc(F)c1
